The source of these data is patent publication US8841413B2, “Antidiabetic compounds” (Cadila Healthcare Limited, priority 2006, dated 2014).

One experiment addresses T1, Human GLP-1 receptor (Homo sapiens, UniProt P43220).
T1 construct: The full-length cDNA was cloned in pcDNA3.1(+); expressed in transfected cells
The experiment is classed as cell-based. Conditions: in vitro, FIG. 4. The procedure: The novel peptidomimetics were screened for Human GLP-1 receptor (HGLP-1 R) agonist activity (in vitro), using the cAMP cell-based assay, in stably transfected CHO/human GLP1R cells. […] CHO cells were grown in Ham's F12 medium containing L-Glutamine (2 mM), HEPES (25 mM), NaHCO3 (1.1 g/L) and supplemented with NewBorn Calf Serum (NBCS; 10%), Penicillin (50 U/ml (v/v)) and Streptomycin (50 ug/ml (v/v)). Cells were split every 3 days 1:8.
The cDNA encoding the human GLP-1 receptor was isolated by RT-PCR according to standard protocol. The full-length cDNA was cloned in pcDNA3.1(+). […] Clones expressing the receptor were generated by G418 (800 μg/ml active, Sigma) selection. The stable clones were thereafter maintained at 500 ug/ml (G418). The selected clone was used between passages 9-25 for cAMP assays.
The trypsin was inactivated using Ham's F12 medium containing 10% NBCS and the cells were suspended in 2 ml of complete medium. […] The medium was aspirated off from the 12 well plate and the cells were washed once using Ham's F12 (plain). […] The cells were incubated with the test compounds for 30 min in humidified atmosphere and 37° C. After the incubation, the medium was removed and cells were washed once with plain Ham's F12. Subsequently, the cells were lysed by adding 500 ul of ice cold 0.1 N HCl to each well and shaking for 30 minutes at 200 rpm. […] The total cAMP was estimated from the sample according to the manufacturer's protocol using Cyclic AMP immunoassay kit (R&D systems, Minneapolis. MN). The remaining supernatant is used to determine the protein concentration using micro BCA (Sigma). Data is calculated as percent of control (Vehicle: water) and expressed as Mean±SD.

The next experiment deals with C57BL/6J mice. Put plainly: Acute single dose 120-min time-course experiment, in vivo glucose reduction in C57BL/6J mice. Set-up: unit not given here. Conditions: male C57BL/6J mice, Mean ± SEM. The procedure: All the animal experiments were carried out according to the internationally valid guidelines following approval by the ‘Zydus Research Center animal ethical committee’. […] Two days prior to the study, the animals were randomised and divided into 5 groups (n=6), based upon their fed glucose levels. On the day of experiment, food was withdrawn from all the cages, water was given ad-libitum and were kept for overnight fasting. Vehicle (normal saline)/test/standard compounds were administered intraperitoneally (i.p.) or orally, on a body weight basis. […] Blood samples were centrifuged and the separated serum was immediately subjected for the glucose estimation. Serum for insulin estimation was stored at −70° C. until used for the insulin estimation. The glucose estimation was carried out with DPEC-GOD/POD method (Ranbaxy Fine Chemicals Limited, Diagnostic division, India), using Spectramax-190, in 96-microwell plate reader (Molecular devices Corporation, Sunnyvale, Calif.). […] The AUC and BCAUC obtained from graphs were analyzed for one way ANOVA, followed by Dunnett's post test, using Graph Pad prism software. Furthermore, the insulin estimation was carried out using rat/mouse insulin ELISA kit (Linco research, Mo. USA).

T1 sequence (P43220 24-463): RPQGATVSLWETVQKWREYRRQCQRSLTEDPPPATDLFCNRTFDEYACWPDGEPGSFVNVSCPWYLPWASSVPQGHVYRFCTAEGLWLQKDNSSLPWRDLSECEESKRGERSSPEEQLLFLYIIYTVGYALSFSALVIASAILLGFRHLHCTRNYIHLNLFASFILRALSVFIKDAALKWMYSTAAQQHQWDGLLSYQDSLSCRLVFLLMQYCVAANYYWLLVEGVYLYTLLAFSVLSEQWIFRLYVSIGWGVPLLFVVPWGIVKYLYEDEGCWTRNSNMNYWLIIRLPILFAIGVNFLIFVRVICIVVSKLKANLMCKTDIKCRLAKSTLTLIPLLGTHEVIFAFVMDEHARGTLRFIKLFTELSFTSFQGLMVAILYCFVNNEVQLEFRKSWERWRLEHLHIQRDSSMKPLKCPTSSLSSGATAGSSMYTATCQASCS

Turning to `CCc1cc(OC)ccc1-c1ccc(CC(NC(=O)[C@H](CC(=O)O)NC(=O)[C@H](CO)NC(=O)[C@@H](NC(=O)[C@H](Cc2ccccc2)NC(=O)[C@@H](NC(=O)CNC(=O)[C@H](CCC(N)=O)NC(=O)[C@H](CO)NC(=O)[C@@H](N)Cc2c[nH]cn2)[C@@H](C)O)[C@@H](C)O)C(=O)NC(Cc2ccc(-c3ccccc3C)cc2)C(N)=O)cc1` (single isomer, unassigned) [Seq. ID. No. 5], the “GLP-1 receptor agonistic activity (in words)” value on Human GLP-1 receptor is “GLP-1 receptor agonistic activity”.

On to `CCc1cc(OC)ccc1-c1ccc(CC(NC(=O)[C@H](CC(=O)O)NC(=O)[C@H](CO)NC(=O)[C@@H](NC(=O)[C@H](Cc2ccccc2)NC(=O)[C@@H](NC(=O)CNC(=O)[C@H](CCC(N)=O)NC(=O)[C@H](C)NC(=O)[C@@H](N)Cc2c[nH]cn2)[C@@H](C)O)[C@@H](C)O)C(=O)NC(Cc2ccc(-c3ccccc3C(F)(F)F)cc2)C(N)=O)cc1` (single isomer, unassigned) [Seq. ID. No. 12], for which the blood glucose level was 184 ± 5.0 in the experiment with C57BL/6J mice (50 nM/kg, i.p, 0 min); 122 ± 3.8 in the experiment with C57BL/6J mice (50 nM/kg, i.p, 30 min); 128 ± 2.1 in the experiment with C57BL/6J mice (50 nM/kg, i.p, 60 min); 149 ± 2.3 in the experiment with C57BL/6J mice (50 nM/kg, i.p, 120 min).

In the case of `CCc1cc(OC)ccc1-c1ccc(CC(NC(=O)[C@H](CC(=O)O)NC(=O)[C@H](CO)NC(=O)[C@@H](NC(=O)[C@H](Cc2ccccc2)NC(=O)[C@@H](NC(=O)CNC(=O)[C@H](CCC(N)=O)NC(=O)C(C)(C)NC(=O)[C@@H](N)Cc2c[nH]cn2)[C@@H](C)O)[C@@H](C)O)C(=O)NC(Cc2ccc(-c3ccccc3C(F)(F)F)cc2)C(N)=O)cc1` (single isomer, unassigned) [Seq. ID. No. 16, H-Aib-QGTFTSD-Bip(OMe)-Bip(2CF3)], the blood glucose level in the experiment on C57BL/6J mice (30 nM/kg, i.p, 0 min) stood at 183 ± 4.9; in the experiment with C57BL/6J mice (30 nM/kg, i.p, 30 min), 117 ± 2.5; with C57BL/6J mice (30 nM/kg, i.p, 60 min), 116 ± 2.3; in the experiment on C57BL/6J mice (30 nM/kg, i.p, 120 min), 119 ± 2.0.

Consider `CCc1cc(OC)ccc1-c1ccc(CC(NC(=O)[C@H](CC(=O)O)NC(=O)[C@H](CO)NC(=O)[C@@H](NC(=O)[C@H](Cc2ccccc2)NC(=O)[C@@H](NC(=O)CNC(=O)[C@H](CCC(N)=O)NC(=O)C2(NC(=O)[C@@H](N)Cc3c[nH]cn3)CC2)[C@@H](C)O)[C@@H](C)O)C(=O)NC(Cc2ccc(-c3ccccc3F)cc2)C(N)=O)cc1` (single isomer, unassigned) [Seq. ID. No. 19, H-(ACP)-QGTFTSD-Bip(OMe)-Bip(2F)], for which the blood glucose level stood at 180 ± 3.2 in the experiment with C57BL/6J mice (30 nM/kg, i.p, 0 min); 119 ± 3.2 in the experiment with C57BL/6J mice (30 nM/kg, i.p, 30 min); 117 ± 3.1 with C57BL/6J mice (30 nM/kg, i.p, 60 min); 118 ± 1.8 with C57BL/6J mice (30 nM/kg, i.p, 120 min).

For `CCc1cc(OC)ccc1-c1ccc(CC(NC(=O)[C@H](CC(=O)O)NC(=O)[C@H](CO)NC(=O)[C@@H](NC(=O)C(C)(Cc2ccccc2F)NC(=O)[C@@H](NC(=O)CNC(=O)[C@H](CCC(N)=O)NC(=O)[C@H](CO)NC(=O)[C@@H](N)Cc2c[nH]cn2)[C@@H](C)O)[C@@H](C)O)C(=O)NC(Cc2ccc(-c3ccccc3F)cc2)C(N)=O)cc1` (single isomer, unassigned) [Seq. ID. No. 23, HSQGT-(α-Me-2F-Phe)-TSD-Bip(OMe)-Bip(2F)], the blood glucose level in the experiment with C57BL/6J mice (20 nM/kg, i.p, 0 min) worked out at 180 ± 3.1; in the experiment on C57BL/6J mice (20 nM/kg, i.p, 30 min), 122 ± 3.9; with C57BL/6J mice (20 nM/kg, i.p, 60 min), 129 ± 2.2; in the experiment on C57BL/6J mice (20 nM/kg, i.p, 120 min) it was 140 ± 2.9.

In the case of `CCc1cc(OC)ccc1-c1ccc(CC(NC(=O)[C@H](CC(=O)O)NC(=O)[C@H](CO)NC(=O)[C@@H](NC(=O)C(C)(Cc2ccccc2F)NC(=O)[C@@H](NC(=O)CNC(=O)[C@H](CCC(N)=O)NC(=O)[C@H](C)NC(=O)[C@@H](N)Cc2c[nH]cn2)[C@@H](C)O)[C@@H](C)O)C(=O)NC(Cc2ccc(-c3ccccc3C(F)(F)F)cc2)C(N)=O)cc1` (single isomer, unassigned) [Seq. ID. No. 28, HAQGT-(α-Me-2F-Phe)-TSD-Bip(OMe)-Bip(2CF3)], the blood glucose level worked out at 182 ± 2.1 in the experiment with C57BL/6J mice (20 nM/kg, i.p, 0 min); 121 ± 2.9 in the experiment with C57BL/6J mice (20 nM/kg, i.p, 30 min); 130 ± 3.1 with C57BL/6J mice (20 nM/kg, i.p, 60 min); 138 ± 2.4 in the experiment with C57BL/6J mice (20 nM/kg, i.p, 120 min).

In the case of `CCc1cc(OC)ccc1-c1ccc(CC(NC(=O)[C@H](CC(=O)O)NC(=O)[C@H](CO)NC(=O)[C@@H](NC(=O)C(C)(Cc2ccccc2F)NC(=O)[C@@H](NC(=O)CNC(=O)[C@H](CCC(N)=O)NC(=O)C(C)(C)NC(=O)[C@@H](N)Cc2c[nH]cn2)[C@@H](C)O)[C@@H](C)O)C(=O)NC(Cc2ccc(-c3ccccc3C)cc2)C(N)=O)cc1` (single isomer, unassigned) [Seq. ID. No. 29, H-Aib-QGT-(α-Me-2F-Phe)-TSD-Bip(OMe)-Bip(2Me)], the blood glucose level with C57BL/6J mice (10 nM/kg, i.p, 0 min) is recorded as 180 ± 2.5; with C57BL/6J mice (10 nM/kg, i.p, 30 min), 110 ± 2.6; in the experiment on C57BL/6J mice (10 nM/kg, i.p, 60 min), 111 ± 3.2; with C57BL/6J mice (10 nM/kg, i.p, 120 min), 112 ± 2.3; in the experiment on C57BL/6J mice (2 μM/kg, oral, 0 min), 184 ± 2.5; in the experiment with C57BL/6J mice (2 μM/kg, oral, 30 min), 115 ± 3.6. The blood glucose level in the experiment on C57BL/6J mice (2 μM/kg, oral, 60 min) was determined as 113 ± 4.2; in the experiment with C57BL/6J mice (2 μM/kg, oral, 120 min), 110 ± 2.4.

On to `CCc1cc(OC)ccc1-c1ccc(CC(NC(=O)[C@H](CC(=O)O)NC(=O)[C@H](CO)NC(=O)[C@@H](NC(=O)C(C)(Cc2ccccc2F)NC(=O)[C@@H](NC(=O)CNC(=O)[C@H](CCC(N)=O)NC(=O)C(C)(C)NC(=O)[C@@H](N)Cc2c[nH]cn2)[C@@H](C)O)[C@@H](C)O)C(=O)NC(Cc2ccc(-c3ccccc3C)nc2)C(N)=O)cc1` (single isomer, unassigned) [Seq. ID. No. 30, H-Aib-QGT-(α-Me-2F-Phe)-TSD-Bip(OMe)-Bip(Pyr)], for which the blood glucose level in the experiment on C57BL/6J mice (10 nM/kg, i.p, 0 min) stood at 182 ± 2.1; in the experiment with C57BL/6J mice (10 nM/kg, i.p, 30 min), 111 ± 2.1; in the experiment with C57BL/6J mice (10 nM/kg, i.p, 60 min), 112 ± 2.8; with C57BL/6J mice (10 nM/kg, i.p, 120 min), 113 ± 2.2; in the experiment with C57BL/6J mice (2 μM/kg, oral, 0 min) it was 183 ± 2.4; in the experiment on C57BL/6J mice (2 μM/kg, oral, 30 min), 116 ± 3.1. Further, the blood glucose level in the experiment on C57BL/6J mice (2 μM/kg, oral, 60 min) was 112 ± 4.8; in the experiment on C57BL/6J mice (2 μM/kg, oral, 120 min), 110 ± 2.5.

Turning to `CCc1cc(OC)ccc1-c1ccc(CC(NC(=O)[C@H](CC(=O)O)NC(=O)[C@H](CO)NC(=O)[C@@H](NC(=O)C(C)(Cc2ccccc2F)NC(=O)[C@@H](NC(=O)CNC(=O)[C@H](CCC(N)=O)NC(=O)C(C)(C)NC(=O)[C@@H](N)Cc2c[nH]cn2)[C@@H](C)O)[C@@H](C)O)C(=O)NC(Cc2ccc(-c3ccccc3F)cc2)C(N)=O)cc1` (single isomer, unassigned) [Seq. ID. No. 31, H-Aib-QGT-(α-Me-2F-Phe)-TSD-Bip(OMe)-Bip(2F)], the blood glucose level turned out to be 183 ± 2.2 with C57BL/6J mice (10 nM/kg, i.p, 0 min); 113 ± 2.8 with C57BL/6J mice (10 nM/kg, i.p, 30 min); 113 ± 2.9 in the experiment with C57BL/6J mice (10 nM/kg, i.p, 60 min); 114 ± 2.0 with C57BL/6J mice (10 nM/kg, i.p, 120 min); 185 ± 2.3 in the experiment with C57BL/6J mice (2 μM/kg, oral, 0 min); 115 ± 3.8 in the experiment with C57BL/6J mice (2 μM/kg, oral, 30 min). The blood glucose level in the experiment on C57BL/6J mice (2 μM/kg, oral, 60 min) worked out at 113 ± 4.9; with C57BL/6J mice (2 μM/kg, oral, 120 min), 109 ± 2.2.
